Assay results taken from the SangsterLogP compilation.

Experiment: method code SF-HPLC, from DOI: 10.2478/s11532-013-0336-y

SMILES: C/C=C/c1c(OC)cc(OC)cc1OC
- logP: 2.61

SMILES: CCCC=Cc1cc(OC)c(OC(=O)c2cccnc2)c(OC)c1
- logP: 3.96

SMILES: CCCCC=Cc1cc(OC)c(OC)c(OC)c1
- logP: 4.1

SMILES: C=CCOc1c(OC)cc(C=CCCC)cc1OC
- logP: 4.28

SMILES: CCCC(O)c1cc(OC)c(OC)c(OC)c1 (stereo not given)
- logP: 1.94

SMILES: CCC(O)c1cc(OC)c(OC)c(OC)c1 (stereo not given)
- logP: 1.45

SMILES: C/C=C/c1cc(OC)cc(OC)c1OC
- logP: 2.93

SMILES: CCCCCC(O)c1cc(OC)c(OC)c(OC)c1 (stereo not given)
- logP: 2.9

SMILES: CCCC/C=C\c1c(OC)cc(OC)cc1OC
- logP: 4.57

SMILES: CC/C=C\c1cc(OC)c(OC)c(OC)c1
- logP: 3.06

SMILES: CCCCC(O)c1cc(OC)c(OC)c(OC)c1 (stereo not given)
- logP: 2.49

SMILES: C=CCOc1c(OC)cc(C=CCC)cc1OC
- logP: 3.81

SMILES: CCCCCC=Cc1cc(OC)c(OC)c(OC)c1
- logP: 4.5

SMILES: CCCC=Cc1cc(OC)c(OC)c(OC)c1
- logP: 3.67

SMILES: C=CCOc1c(OC)cc(C=CC)cc1OC
- logP: 3.22

SMILES: CCCCCCC(O)c1cc(OC)c(OC)c(OC)c1 (stereo not given)
- logP: 3.59

SMILES: C/C=C/c1ccc(OC)c(OC)c1OC
- logP: 3.09

SMILES: C/C=C/c1c(OC)ccc(OC)c1OC
- logP: 2.73

SMILES: C/C=C/c1cc(OC)c(OC)c(OC)c1
- logP: 2.27

SMILES: C/C=C/c1cc(OC)c(OC)cc1OC
- logP: 2.44

SMILES: CCC/C=C\c1c(OC)cc(OC)cc1OC
- logP: 3.97

SMILES: CC/C=C\c1c(OC)cc(OC)cc1OC
- logP: 3.56

SMILES: CCC=Cc1cc(OC)c(OC(=O)c2cccnc2)c(OC)c1
- logP: 3.5

SMILES: CCCCCCCC(O)c1cc(OC)c(OC)c(OC)c1 (stereo not given)
- logP: 3.95

SMILES: CC=Cc1cc(OC)c(OC(=O)c2cccnc2)c(OC)c1
- logP: 2.94
